From ChEMBL document CHEMBL4616720 (J Med Chem, 2020)
Calls of active or inactive are those of the source. The rule behind the calls is not given here.

How the values were obtained:
HL-60 = assay: Antiproliferative activity against human HL60 cells assessed as reduction in cell growth measured after 48 hrs by CCK8 assay; type: functional, cell-based; details: HL-60, 48 h
A549 = assay: Induction of apoptosis in human A549 cells assessed as induction of caspase-3 activation at 40 uM using Ac-DEVD-pNA as substrate preincubated for 24 hrs followed by substrate addition and measured after 2 hrs by microplate reader assay; type: functional, cell-based
[1] = Apparent volume of distribution at steady state in Sprague-Dawley rat at 2 mg/kg, iv measured up to 24 hrs by LC-MS/MS analysis; type: ADME, organism-based; details: in vivo, read-out: Vdss(app)
[2] = Oral bioavailability in Sprague-Dawley rat at 20 mg/kg measured up to 24 hrs by LC-MS/MS analysis; type: ADME, organism-based; details: in vivo
[3] = Toxicity in BALB/c nude mouse xenografted with human HCT116 cells assessed as adverse effect at 25 to 50 mg/kg, ip administered every 3 days for 21 days; type: organism-based, HCT-116; details: in vivo

SMILES: O=C(C[C@@H](CC1CCCC1)C(=O)N1CC2(CC2)C[C@H]1c1nc(-c2ccc(F)cc2C(F)(F)F)no1)NO
- IC50 (HL-60): 2020 nM
- Activity (A549): inactive
- Vd [1]: 5.26 L/kg
- F [2]: 23.5%
- Activity [3]: Non-Toxic
